# According to patent publication US20100075907A1, “NEUROMEDIN U RECEPTOR AGONISTS AND USES THEREOF” (priority 2006, published 2010):
# Starred links: 1 amine or outer side, 2 acyl side, 3 side chain; linkers in the order of their positions; H or OH if unused. Non-standard residues stand in square brackets, D forms with d. Residues, ends and D or L forms follow the SMILES beside them. *: point of attachment. X1 = CC(C)CCC[C@@H](C)[C@H]1CC[C@H]2[C@@H]3CC=C4C[C@@H](OC(=O)C*)CC[C@]4(C)[C@H]3CC[C@]12C; X2 = CCN1C(=O)CC(SC[C@H](NC(C)=O)C(=O)NCCCOCCOCCOCCCN*)C1=O; Succinimide(1-Et,3-yl) = CCN1C(=O)CC(*)C1=O; Palmitoyl = CCCCCCCCCCCCCCCC(=O)*; Suc = O=C(CCC(=O)[*:2])[*:1]
# Tests used:
# Type in all cases: cell-based
# [1] = target: T1, hNMUR1 (Homo sapiens, UniProt Q9HB89); assay: In vitro functional assay, HEK-hR1 cells; set-up: expressed in transfected cells; host or cells: FLP-In CHO or HEK-293 FLP-In cells (pcDNA5); HEK-293/aeq17 lines (pIRES-puro) were also made; settings: Table 8, HEK-hR1, functional
# T1 sequence (Q9HB89 1-426): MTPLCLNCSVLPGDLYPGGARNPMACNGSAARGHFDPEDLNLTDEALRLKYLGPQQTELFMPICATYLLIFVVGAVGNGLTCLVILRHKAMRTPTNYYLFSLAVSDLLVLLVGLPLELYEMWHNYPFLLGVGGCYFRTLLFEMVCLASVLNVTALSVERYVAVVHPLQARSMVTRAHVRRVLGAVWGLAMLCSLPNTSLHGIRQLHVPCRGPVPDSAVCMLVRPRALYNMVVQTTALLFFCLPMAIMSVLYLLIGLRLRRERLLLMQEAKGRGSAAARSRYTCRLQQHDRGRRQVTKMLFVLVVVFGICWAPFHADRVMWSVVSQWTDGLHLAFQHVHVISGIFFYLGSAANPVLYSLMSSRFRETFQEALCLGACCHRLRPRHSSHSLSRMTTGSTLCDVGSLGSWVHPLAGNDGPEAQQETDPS
# From the text: (§1) Human, mouse or rat cDNAs encoding NMUR1 or NMUR2 (as described in Howard et al. Nature 406: 70-74 (2000) were subcloned in pcDNA5 (Invitrogen) and transfected into FLP-In CHO cells and HEK-293 FLP-In cells purchased from Invitrogen (Carlsbad, Calif.) using lipofectamine (Invitrogen). The Flp-In system allows integration and expression of a particular gene of interest at a specific genomic location utilizing the Flp recombinase from yeast. The transfected cells were selected by growth in medium containing 200 μg/mL hygromycin (Invitrogen). Populations were frozen at early passage numbers, and these stocks were used for further studies. Stable clones that expressed the mRNAs were identified functionally by FLIPR as well as by RT-PCR. […] Two different rodent NMUR1 cell lines were thus generated: one with the codon as predicted from the genomic databases and another cell line with an engineered methionine (ATG) as the start codon. Additionally, stable cell lines expressing the human receptors were generated in HEK-293/aeq17 cells which stably express the aequorin gene under the CMV promoter. The human NMUR2 cDNA was cloned into pcDNA3.1 and human NMUR1 was subcloned into pIRES-puro (Clontech, Mountain View, Calif.), after transfection cells were selected in media containing G418 and either hygromycin (NMUR2) or puromycin (NMUR1).
# (§2) The NMU receptors signal primarily through Gαq/11 proteins; therefore calcium mobilization assays can be utilized for functional activity.
# (§3) Stable cell lines expressing human and or rodent NMUR1 or human NMUR2 receptors were plated at a density of 12,000 cells per well overnight on poly-lysine coated 384-well black-walled plates. The following day, the media was removed from the plates and the cells were subsequently loaded with Fluo-3 (Molecular Probes), a calcium sensitive dye, diluted in FLIPR buffer (1× Hank's buffered saline containing 20 mM HEPES, 0.1% BSA, 2.5 mM probenecid (Sigma) and 1.6 mM TR40). All reagents are from Invitrogen unless otherwise noted. Peptide stocks were resuspended in DMSO at a stock concentration of 2 mM and diluted in FLIPR buffer on the day of the experiment to a 4 μM working stock solution.
# (§4) After a 90 minute incubation at room-temperature, cell plates were loaded onto a FLIPR (Molecular Devices) to monitor cellular fluorescence (excitation=488 nm; emission=540 nm) before and after compound/peptide addition. Eight to twelve point dose responses were tested on NMUR-expressing cell lines using FLIPR with 1 μM peptide as the highest dose. The response after peptide addition was taken as the maximum fluorescence units minus the fluorescence immediately prior to stimulation for each well. EC50 values were calculated using GraphPad Prism (San Diego, Calif.) software.
# In addition to FLIPR, NMU receptor function can also be evaluated using an aequorin assay. Stable cell lines expressing the aequorin jelly fish gene can be used to report the activation of GPCRs by monitoring intracellular calcium mobilization. The objective is to identify compounds which specifically stimulate aequorin bioluminescence. Calcium-dependent luminescence is generated by the treatment of cells with the coelenterate luciferin, coelenterazine. Briefly, confluent monolayers of HEK-293/aeq 17 cells expressing hNMUR1 or hNMUR2 are “charged” with coelenterazine (Molecular Probes, Carlsbad, Calif.). Confluent T75 flasks are rinsed with media containing 300 μM glutathione and 0.1% FBS. Cells are incubated at 37° C. for one hour in 8 mL media, 0.1% FBS, 300 μM glutathione, and 20 μM coelenterazine. T75 flasks are subsequently rinsed with 6 mL ECB buffer (140 mM NaCl, 20 mM KCl, 20 mM HEPES, 5 mM glucose, 1 mM MgCl, 1 mM CaCl2, 0.1 mg/mL BSA, PH 7.3-7.4). Cells are removed from the flask in ECB buffer, pelleted, and resuspended at a density of 2×10^5 cells/mL. Agonists are added to the cells and activity is determined using a luminometer. […]
# [2] = target: hNMUR2 (Homo sapiens, UniProt Q9GZQ4); assay: FLIPR calcium mobilization assay, human NMUR2; set-up: expressed in transfected cells; host or cells: FLP-In CHO or HEK-293 FLP-In cells (pcDNA5); HEK-293/aeq17 lines (pcDNA3.1) were also made; settings: for EC50: FLIPR
# hNMUR2, sequence (Q9GZQ4 whole entry): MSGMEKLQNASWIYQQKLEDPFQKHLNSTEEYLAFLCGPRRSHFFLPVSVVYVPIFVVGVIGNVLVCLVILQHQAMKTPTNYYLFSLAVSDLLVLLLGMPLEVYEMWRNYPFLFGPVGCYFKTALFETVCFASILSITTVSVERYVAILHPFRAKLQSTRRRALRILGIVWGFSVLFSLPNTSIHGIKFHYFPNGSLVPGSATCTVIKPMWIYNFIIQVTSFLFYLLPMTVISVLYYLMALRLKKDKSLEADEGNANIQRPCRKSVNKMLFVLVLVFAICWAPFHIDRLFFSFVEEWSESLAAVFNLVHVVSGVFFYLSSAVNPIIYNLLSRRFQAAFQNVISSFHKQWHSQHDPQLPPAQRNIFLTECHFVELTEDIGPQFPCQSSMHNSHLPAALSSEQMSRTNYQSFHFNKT
# From the text: as §1, §2, §3, §4
# (§5) In vitro responses of Neuromedin U receptor agonists (NMU1 to NMU25) in the FLIPR assay for human (Table 3), mouse (Table 4) and rat (Table 5) NMUR1 and NMUR2. EC50s are reported in nM values. Percent activity refers to the maximum response at 1 μM compared to the hNMU-25 response at the same concentration. NT=not tested.
# [3] = target: mouse NMUR2 (Mus musculus, UniProt Q8BZ39); assay: FLIPR calcium mobilization assay, mouse NMUR2; set-up: expressed in transfected cells; host or cells: FLP-In CHO or HEK-293 FLP-In cells (pcDNA5); settings: for EC50: FLIPR
# mouse NMUR2, sequence (Q8BZ39 whole entry): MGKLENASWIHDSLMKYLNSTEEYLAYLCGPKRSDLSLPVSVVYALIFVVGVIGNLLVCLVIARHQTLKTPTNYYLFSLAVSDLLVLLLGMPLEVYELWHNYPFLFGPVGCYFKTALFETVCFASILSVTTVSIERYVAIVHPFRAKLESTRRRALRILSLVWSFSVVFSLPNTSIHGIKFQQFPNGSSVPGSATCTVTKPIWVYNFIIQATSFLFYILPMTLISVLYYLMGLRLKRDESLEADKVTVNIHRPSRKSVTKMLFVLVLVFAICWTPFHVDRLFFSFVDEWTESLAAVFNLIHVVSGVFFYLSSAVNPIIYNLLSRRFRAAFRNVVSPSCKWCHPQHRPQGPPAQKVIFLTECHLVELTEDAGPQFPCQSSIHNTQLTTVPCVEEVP
# From the text: as §1, §2, §3, §4, §5
# [4] = maximum response at 1 μM compared to hNMU-25, human NMUR2
# [5] = maximum response at 1 μM compared to hNMU-25, mouse NMUR2
Compound,EC50 ([2]; human NMUR2) [µM],"% Activity [2, 4] [%]",EC50 ([3]; mouse NMUR2) [µM],"% Activity [3, 5] [%]",further results
CC(C)C[C@@H](NC(=O)[C@H](Cc1ccccc1)NC(=O)[C@H](Cc1ccc(O)cc1)NC(=O)CNC(=O)[C@H](CCCNC(=N)N)NC(=O)[C@H](CO)NC(=O)[C@H](CCC(N)=O)NC(=O)[C@H](CO)NC(=O)[C@H](C)NC(=O)[C@H](Cc1ccccc1)NC(=O)[C@@H]1CCCN1C(=O)[C@H](CO)NC(=O)[C@H](CCC(N)=O)NC(=O)[C@H](Cc1ccccc1)NC(=O)[C@H](CCC(=O)O)NC(=O)[C@H](CCC(=O)O)NC(=O)[C@H](CC(=O)O)NC(=O)[C@@H](NC(=O)[C@H](CCCNC(=N)N)NC(=O)[C@@H](N)Cc1ccccc1)C(C)C)C(=O)N[C@@H](Cc1c[nH]c2ccccc12)C(=O)N[C@@H](CCCNC(=N)N)C(=O)N1CCC[C@H]1C(=O)N[C@@H](CCCNC(=N)N)C(=O)N[C@@H](CC(N)=O)C(N)=O [Agonist H] (H-FRVDEEFQSPFASQSRGYF[dL]WRPRN-NH2; N-terminus assumed),–,–,–,–,"% Activity [1]: 88%; IC50 [1]: 0.019 µM; % Activity ([2]; functional, human R2, relative to native hNMU responses): 0%; IC50 ([3]; functional data, mouse R2): > 1 µM; % Activity ([3]; functional, mouse R2, relative to native hNMU responses): 40%"
"Pam-C2FRVDEEFQSPFASQSRGYFLFRPRN-CONH2 ({Palmitoyl-C(PEG 40 kDa)}-FRVDEEFQSPFASQSRGYFLFRPRN-NH2) [NMU25, Pam = palmitoyl; C2 = Cys(PEG)240 kDa]",0.0441,98.8,0.0188,–,–
Ac-FRVDEEFQSPFASQSRGYFLFRPRN-NH2 [NMU2],0.0026,97.4,0.0012,100,–
CC(=O)N[C@@H](CSCC(=O)O[C@H]1CC[C@@]2(C)C(=CC[C@H]3[C@@H]4CC[C@H]([C@H](C)CCCC(C)C)[C@@]4(C)CC[C@@H]32)C1)C(=O)NCC(=O)N[C@@H](Cc1ccc(O)cc1)C(=O)N[C@@H](Cc1ccccc1)C(=O)N[C@@H](CC(C)C)C(=O)N[C@@H](Cc1ccccc1)C(=O)N[C@@H](CCCNC(=N)N)C(=O)N1CCC[C@H]1C(=O)N[C@@H](CCCNC(=N)N)C(=O)N[C@@H](CC(N)=O)C(N)=O [NMU11] (Ac-C(X1)GYFLFRPRN-NH2),–,37.3,–,70.5,–
"CCN1C(=O)CC(SC[C@H](NC(C)=O)C(=O)N[C@@H](Cc2ccccc2)C(=O)N[C@@H](CCC(N)=O)C(=O)N[C@@H](CO)C(=O)N2CCC[C@H]2C(=O)N[C@@H](Cc2ccccc2)C(=O)N[C@@H](C)C(=O)N[C@@H](CO)C(=O)N[C@@H](CCC(N)=O)C(=O)N[C@@H](CO)C(=O)N[C@@H](CCCNC(=N)N)C(=O)NCC(=O)N[C@@H](Cc2ccc(O)cc2)C(=O)N[C@@H](Cc2ccccc2)C(=O)N[C@@H](CC(C)C)C(=O)N[C@@H](Cc2ccccc2)C(=O)N[C@@H](CCCNC(=N)N)C(=O)N2CCC[C@H]2C(=O)N[C@@H](CCCNC(=N)N)C(=O)N[C@@H](CC(N)=O)C(N)=O)C1=O (stereo partly shown) [NMU19] (Ac-C(Succinimide(1-Et,3-yl))FQSPFASQSRGYFLFRPRN-NH2)",–,105,–,100,–
"Ac-C2FQSPFASQSRGYFLFRPRN-CONH2 ({Ac-C(PEG 40 kDa)}-FQSPFASQSRGYFLFRPRN-NH2; not fully specified; printed as Ac-C2FQSPFASQSRGYFLFRPRN-CONH2) [NMU20, C2 = Cys(PEG)240 kDa]",0.013,–,0.0148,–,–
"CCN1C(=O)CC(SC[C@H](NC(C)=O)C(=O)N[C@@H](Cc2ccccc2)C(=O)N[C@@H](CCCNC(=N)N)C(=O)N[C@H](C(=O)N[C@@H](CC(=O)O)C(=O)N[C@@H](CCC(=O)O)C(=O)N[C@@H](CCC(=O)O)C(=O)N[C@@H](Cc2ccccc2)C(=O)N[C@@H](CCC(N)=O)C(=O)N[C@@H](CO)C(=O)N2CCC[C@H]2C(=O)N[C@@H](Cc2ccccc2)C(=O)N[C@@H](C)C(=O)N[C@@H](CO)C(=O)N[C@@H](CCC(N)=O)C(=O)N[C@@H](CO)C(=O)N[C@@H](CCCNC(=N)N)C(=O)NCC(=O)N[C@@H](Cc2ccc(O)cc2)C(=O)N[C@@H](Cc2ccccc2)C(=O)N[C@@H](CC(C)C)C(=O)N[C@@H](Cc2ccccc2)C(=O)N[C@@H](CCCNC(=N)N)C(=O)N2CCC[C@H]2C(=O)N[C@@H](CCCNC(=N)N)C(=O)N[C@@H](CC(N)=O)C(N)=O)C(C)C)C1=O (stereo partly shown) [NMU8] (Ac-C(Succinimide(1-Et,3-yl))FRVDEEFQSPFASQSRGYFLFRPRN-NH2)",–,100,–,100,–
"CCN1C(=O)CC(SC[C@H](NC(C)=O)C(=O)NCCCOCCOCCOCCCNC(=O)CCC(=O)N[C@@H](Cc2ccccc2)C(=O)N[C@@H](CC(C)C)C(=O)N[C@@H](Cc2ccccc2)C(=O)N[C@@H](CCCNC(=N)N)C(=O)N2CCC[C@H]2C(=O)N[C@@H](CCCNC(=N)N)C(=O)N[C@@H](CC(N)=O)C(N)=O)C1=O (stereo partly shown) [NMU15, Ac-C1-Ttds-FLFRPRN-CONH2] ({X2-Suc}-FLFRPRN-NH2)",–,101,–,100,–
